The test concerns the target T1, LRRK2 (endogenous, HiBit tagged) (Homo sapiens, UniProt Q5S007).
T1 construct: endogenous in cells; host or cells: HEK293 cells with HiBit knock-in at the endogenous LRRK2 locus, stably expressing firefly luciferase
As to the kind of experiment: Endogenous LRRK2 degradation assay, endogenous gene C-terminally HiBit-tagged in HEK293 cells (Nano-Glo Dual Luciferase). As to conditions: endogenous HiBit-tagged LRRK2 in HEK293 cells. It is filed as cell-based. An outline of the steps:
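LRRK2-HiBit quantified via Nano-Glo Dual Luciferase in HEK293 knock-in cells co-expressing firefly luciferase, after 24 h exposure to compound (1 μM final top, 1:3, 11 points). Values normalised to DMSO median per plate and curve-fitted; Alamar Blue viability run alongside.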
(The HiBiT peptide binds its large partner to form an active luciferase.)

Setting [1] is: 24 hours treatment, read-out: **Endogenous WT Dmax (%).
Where [2] appears, read: 24 hours treatment, read-out: *Endogenous WT DC50.
[3] abbreviates: 24 hours treatment, read-out: Endogenous WT DC50.
Setting [4] is: 24 hours treatment, read-out: Endogenous WT Dmax.

The text below walks through data of patent US12559506B2, “Indazole based compounds and associated methods of use” (Arvinas Operations, Inc., priority 2021, dated 2026).

One may read the Dmax as the greatest extent of degradation seen. Broadly, the DC50 is the midpoint of the concentration-degradation curve.

Like-named read-outs stand apart in the source and are kept apart here. Bounds are passed on as bounds.

T1 sequence (Q5S007 whole entry): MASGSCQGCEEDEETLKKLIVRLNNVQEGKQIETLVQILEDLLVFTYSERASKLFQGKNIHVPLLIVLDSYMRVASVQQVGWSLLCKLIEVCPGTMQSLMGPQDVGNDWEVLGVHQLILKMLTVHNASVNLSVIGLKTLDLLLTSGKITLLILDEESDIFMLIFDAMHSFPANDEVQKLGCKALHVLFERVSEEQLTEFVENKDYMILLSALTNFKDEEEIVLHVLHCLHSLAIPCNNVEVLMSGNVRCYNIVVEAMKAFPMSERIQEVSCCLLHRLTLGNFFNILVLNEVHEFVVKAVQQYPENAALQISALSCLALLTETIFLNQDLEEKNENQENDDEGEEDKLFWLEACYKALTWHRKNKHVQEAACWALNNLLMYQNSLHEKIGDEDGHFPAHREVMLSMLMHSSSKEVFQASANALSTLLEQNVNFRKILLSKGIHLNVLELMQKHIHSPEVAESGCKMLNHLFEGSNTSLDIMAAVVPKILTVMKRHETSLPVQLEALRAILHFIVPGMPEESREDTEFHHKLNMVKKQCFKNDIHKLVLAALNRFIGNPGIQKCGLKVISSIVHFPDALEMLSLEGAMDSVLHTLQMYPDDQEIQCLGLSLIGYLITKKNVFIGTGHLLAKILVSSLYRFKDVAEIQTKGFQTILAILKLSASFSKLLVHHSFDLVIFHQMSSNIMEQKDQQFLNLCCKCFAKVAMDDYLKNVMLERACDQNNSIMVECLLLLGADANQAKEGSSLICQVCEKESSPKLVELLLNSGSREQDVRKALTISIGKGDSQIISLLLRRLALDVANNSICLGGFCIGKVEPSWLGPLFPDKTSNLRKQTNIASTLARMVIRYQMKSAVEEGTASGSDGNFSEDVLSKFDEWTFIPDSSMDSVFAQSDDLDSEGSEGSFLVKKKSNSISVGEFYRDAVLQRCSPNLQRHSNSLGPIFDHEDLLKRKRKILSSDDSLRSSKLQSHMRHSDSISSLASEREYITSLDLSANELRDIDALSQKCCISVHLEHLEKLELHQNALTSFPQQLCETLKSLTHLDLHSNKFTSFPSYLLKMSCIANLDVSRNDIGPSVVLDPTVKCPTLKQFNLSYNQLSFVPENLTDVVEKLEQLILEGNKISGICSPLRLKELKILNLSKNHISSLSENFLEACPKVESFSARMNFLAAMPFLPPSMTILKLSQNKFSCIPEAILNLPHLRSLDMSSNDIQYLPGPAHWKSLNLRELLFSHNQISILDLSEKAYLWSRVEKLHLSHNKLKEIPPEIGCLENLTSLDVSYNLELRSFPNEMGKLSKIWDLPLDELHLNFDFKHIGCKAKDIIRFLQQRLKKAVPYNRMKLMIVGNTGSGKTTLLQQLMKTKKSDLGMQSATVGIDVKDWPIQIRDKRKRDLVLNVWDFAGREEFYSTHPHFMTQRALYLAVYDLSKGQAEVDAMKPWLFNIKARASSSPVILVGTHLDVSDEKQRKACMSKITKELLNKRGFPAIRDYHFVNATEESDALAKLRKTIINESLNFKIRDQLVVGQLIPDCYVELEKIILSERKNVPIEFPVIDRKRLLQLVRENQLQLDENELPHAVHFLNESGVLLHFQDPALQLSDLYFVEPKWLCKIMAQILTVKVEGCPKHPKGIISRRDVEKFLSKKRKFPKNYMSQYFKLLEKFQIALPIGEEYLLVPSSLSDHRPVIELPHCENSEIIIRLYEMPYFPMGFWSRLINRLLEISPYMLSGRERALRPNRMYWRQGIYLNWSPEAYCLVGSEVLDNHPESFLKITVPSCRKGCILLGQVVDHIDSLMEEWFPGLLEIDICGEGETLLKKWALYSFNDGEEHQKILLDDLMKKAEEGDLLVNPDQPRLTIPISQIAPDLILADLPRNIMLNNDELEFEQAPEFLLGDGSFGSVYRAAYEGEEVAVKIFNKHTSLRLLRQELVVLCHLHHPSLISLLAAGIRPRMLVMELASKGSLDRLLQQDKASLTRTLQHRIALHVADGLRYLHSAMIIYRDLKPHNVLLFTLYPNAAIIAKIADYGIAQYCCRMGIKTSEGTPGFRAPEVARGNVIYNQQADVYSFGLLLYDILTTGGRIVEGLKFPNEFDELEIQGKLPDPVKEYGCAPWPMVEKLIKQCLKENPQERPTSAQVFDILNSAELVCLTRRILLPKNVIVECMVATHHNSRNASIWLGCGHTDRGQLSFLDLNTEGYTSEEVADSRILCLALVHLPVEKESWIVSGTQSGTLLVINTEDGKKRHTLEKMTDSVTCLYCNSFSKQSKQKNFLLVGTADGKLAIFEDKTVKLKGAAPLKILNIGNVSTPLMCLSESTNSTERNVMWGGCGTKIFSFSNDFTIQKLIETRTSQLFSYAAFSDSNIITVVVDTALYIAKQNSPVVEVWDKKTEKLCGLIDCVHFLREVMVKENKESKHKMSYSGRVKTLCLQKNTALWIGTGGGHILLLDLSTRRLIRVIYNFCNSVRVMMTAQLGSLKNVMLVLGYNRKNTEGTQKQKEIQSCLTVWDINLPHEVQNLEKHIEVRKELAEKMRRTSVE

Take `C[C@@H]1CN(CC2CCN(c3ccc4c(c3F)CN(C3CCC(=O)NC3=O)C4=O)CC2)C[C@H](C)N1CC1CCN(c2cc(-c3n[nH]c4ccc(OC5(C)CC5)cc34)ncn2)CC1` (stereo partly drawn) [Compound 284, 3-[5-(4-{[(3R,5S)-3,5-dimethyl-4-[(1-{6-[5-(1-methylcyclopropoxy)-1H-indazol-3-yl]pyrimidin-4-yl}piperidin-4-yl)methyl]piperazin-1-yl]methyl}piperidin-1-yl)-4-fluoro-1-oxo-2,3-dihydro-1H-isoindol-2-yl]piperidine-2,6-dione]: the Dmax under setting [1] fell in the range of 50 to 70%. Under setting [2], the DC50 is below 0.01 µM.
Turning to `C[C@@H]1CN(CC2CCN(c3ccc4c(c3F)CN(C3CCC(=O)NC3=O)C4=O)CC2)CCN1CC1CCN(c2cc(-c3n[nH]c4cnc(OC5(C)CC5)cc34)ncn2)CC1` (stereo partly drawn) [Compound 263, 3-[4-fluoro-5-(4-{[(3R)-3-methyl-4-[(1-{6-[5-(1-methylcyclopropoxy)-1H-pyrazolo[3,4-c]pyridin-3-yl]pyrimidin-4-yl}piperidin-4-yl)methyl]piperazin-1-yl]methyl}piperidin-1-yl)-1-oxo-2,3-dihydro-1H-isoindol-2-yl]piperidine-2,6-dione], under setting [1], the Dmax is at least 70%. For the same molecule, the DC50 under setting [2] was below 0.01 µM.
As for `CC1(Oc2ccc3[nH]nc(-c4cc(N5CCN(CCN6CCC7(CN(c8ccc9c(c8F)CN(C8CCC(=O)NC8=O)C9=O)C7)C(F)(F)C6)CC5)ncn4)c3c2)CC1` (centres unmarked) [Compound 336, 3-(5-{5,5-difluoro-7-[2-(4-{6-[5-(1-methylcyclopropoxy)-1H-indazol-3-yl]pyrimidin-4-yl}piperazin-1-yl)ethyl]-2,7-diazaspiro[3.5]nonan-2-yl}-4-fluoro-1-oxo-2,3-dihydro-1H-isoindol-2-yl)piperidine-2,6-dione], the Dmax under setting [1] is 50 to 70%. Moreover, under setting [2], the DC50 was below 0.01 µM.
With `COc1cc(N2CCC(CN3CCN(CC4CCN(c5cc(-c6n[nH]c7ccc(OC8(C)CC8)cc67)ncn5)CC4)CC3)CC2)cc2c1C(=O)N(C1CCC(=O)NC1=O)C2` (centres unmarked) [Compound 215, 3-[7-methoxy-5-[4-[[4-[[1-[6-[5-(1-methylcyclopropoxy)-1H-indazol-3-yl]pyrimidin-4-yl]-4-piperidyl]methyl]piperazin-1-yl]methyl]-1-piperidyl]-1-oxo-isoindolin-2-yl]piperidine-2,6-dione], the half-maximal degradation concentration (DC50) under setting [3] was below 0.01 µM. In addition, the maximal degradation (Dmax) under setting [4] was at least 70%.
`CC1(Oc2cc3c(-c4cc(N5CCN(C[C@H]6CC[C@H](OC7CCN(c8ccc9c(c8F)CN(C8CCC(=O)NC8=O)C9=O)CC7)CC6)CC5)ncn4)n[nH]c3cn2)CC1` (some centres unmarked) [Compound 258, 3-[4-fluoro-1-oxo-5-(4-{[(1r,4r)-4-[(4-{6-[5-(1-methylcyclopropoxy)-1H-pyrazolo[3,4-c]pyridin-3-yl]pyrimidin-4-yl}piperazin-1-yl)methyl]cyclohexyl]oxy}piperidin-1-yl)-2,3-dihydro-1H-isoindol-2-yl]piperidine-2,6-dione]: the Dmax under setting [1] was in the range of 50 to 70%. Besides, the half-maximal degradation concentration (DC50) under setting [2] was below 0.01 µM.
Consider `COc1c(N2CCC(O[C@H]3CC[C@H](CN4CCN(c5cc(-c6n[nH]c7cc(F)c(OC8(C)CC8)cc67)ncn5)CC4)CC3)CC2)ccc2c1CN(C1CCC(=O)NC1=O)C2=O` (some centres unmarked) [Compound 360, 3-[4-methoxy-1-oxo-5-(4-{[(1r,4r)-4-[(4-{6-[6-fluoro-5-(1-methylcyclopropoxy)-1H-indazol-3-yl]pyrimidin-4-yl}piperazin-1-yl)methyl]cyclohexyl]oxy}piperidin-1-yl)-2,3-dihydro-1H-isoindol-2-yl]piperidine-2,6-dione], for which, under setting [3], the half-maximal degradation concentration (DC50) is below 0.01 µM. In addition, the Dmax under setting [4] lay in the range of 50 to 70%.
`COc1c(N2CC3(CCN(CCC4CCN(c5cc(-c6n[nH]c7ccc(OC8(C)CC8)cc67)ncn5)CC4)CC3(F)F)C2)ccc2c1CN(C1CCC(=O)NC1=O)C2=O` (centres unmarked) [Compound 341, 3-(5-{5,5-difluoro-7-[2-(1-{6-[5-(1-methylcyclopropoxy)-1H-indazol-3-yl]pyrimidin-4-yl}piperidin-4-yl)ethyl]-2,7-diazaspiro[3.5]nonan-2-yl}-4-methoxy-1-oxo-2,3-dihydro-1H-isoindol-2-yl)piperidine-2,6-dione]: under setting [1], the maximal degradation (Dmax) lay within 50 to 70%. Also, under setting [2], the half-maximal degradation concentration (DC50) is below 0.01 µM.
With `CC1(Oc2cc3c(-c4cc(N5CCC(CN6CCN(CC7CCN(c8ccc9c(c8F)CN(C8CCC(=O)NC8=O)C9=O)CC7)C(C)(C)C6)CC5)ncn4)n[nH]c3cn2)CC1` (centres unmarked) [Compound 270, 3-{5-[4-({2,2-dimethyl-4-[(1-{6-[5-(1-methylcyclopropoxy)-1H-pyrazolo[3,4-c]pyridin-3-yl]pyrimidin-4-yl}piperidin-4-yl)methyl]piperazin-1-yl}methyl)piperidin-1-yl]-4-fluoro-1-oxo-2,3-dihydro-1H-isoindol-2-yl}piperidine-2,6-dione], the maximal degradation (Dmax) under setting [1] is at least 70%. Besides, the DC50 under setting [2] is below 0.01 µM.
Turning to `C[C@@H]1CN(c2cc(-c3n[nH]c4ccc(OC5(C)CC5)cc34)ncn2)C[C@H](C)N1C[C@H]1CC[C@H](OC2CCN(c3ccc4c(c3F)CN(C3CCC(=O)NC3=O)C4=O)CC2)CC1` (stereo partly drawn) [Compound 352, 3-[4-fluoro-1-oxo-5-(4-{[(1r,4r)-4-{[(2R,6S)-2,6-dimethyl-4-{6-[5-(1-methylcyclopropoxy)-1H-indazol-3-yl]pyrimidin-4-yl}piperazin-1-yl]methyl}cyclohexyl]oxy}piperidin-1-yl)-2,3-dihydro-1H-isoindol-2-yl]piperidine-2,6-dione], under setting [1], the Dmax fell in the range of 50 to 70%. Also, the DC50 under setting [2] was below 0.01 µM.
On to `COc1c(N2CCC(CN3CCN(C(C)(C)C4CCN(c5cc(-c6n[nH]c7ccc(OC8(C)CC8)cc67)ncn5)CC4)CC3)CC2)ccc2c1CN(C1CCC(=O)NC1=O)C2=O` (centres unmarked) [Compound 331, 3-{4-methoxy-5-[4-({4-[2-(1-{6-[5-(1-methylcyclopropoxy)-1H-indazol-3-yl]pyrimidin-4-yl}piperidin-4-yl)propan-2-yl]piperazin-1-yl}methyl)piperidin-1-yl]-1-oxo-2,3-dihydro-1H-isoindol-2-yl}piperidine-2,6-dione], for which the Dmax under setting [1] is 50 to 70%. Further, the DC50 under setting [2] was below 0.01 µM.
For the molecule `CC1(Oc2ccc3[nH]nc(-c4cc(N5CCC(COC6CCC7(CC6)CN(c6ccc8c(c6F)CN(C6CCC(=O)NC6=O)C8=O)C7)CC5)ncn4)c3c2)CC1` (centres unmarked) [Compound 372, 3-(4-fluoro-5-{7-[(1-{6-[5-(1-methylcyclopropoxy)-1H-indazol-3-yl]pyrimidin-4-yl}piperidin-4-yl)methoxy]-2-azaspiro[3.5]nonan-2-yl}-1-oxo-2,3-dihydro-1H-isoindol-2-yl)piperidine-2,6-dione], the DC50 under setting [3] is below 0.01 µM. The Dmax under setting [4] was in the range of 50 to 70%.
In the case of `C[C@H]1CN(c2cc(-c3[nH]nc4ccc(OC5(C)CC5)cc34)ncn2)CCN1CCN1CCN(CC2CCN(c3ccc4c(c3)CN(C3CCC(=O)NC3=O)C4=O)CC2)CC1` (stereo partly drawn) [Compound 65, 3-(5-{4-[(4-{2-[(2S)-2-methyl-4-{6-[5-(1-methylcyclopropoxy)-2H-indazol-3-yl]pyrimidin-4-yl}piperazin-1-yl]ethyl}piperazin-1-yl)methyl]piperidin-1-yl}-1-oxo-2,3-dihydro-1H-isoindol-2-yl)piperidine-2,6-dione], under “24 hours, read-out: **Endogenous WT Dmax (%)”, the Dmax was at least 70%. Also, where the note is “24 hours, read-out: *Endogenous WT DC50”, the DC50 is below 0.01 µM.
As to `C[C@H]1CN(C[C@H]2CC[C@H](OC3CCN(c4cc(-c5n[nH]c6ccc(OC7(C)CC7)cc56)ncn4)CC3)CC2)CCN1c1ccc2c(c1F)CN(C1CCC(=O)NC1=O)C2=O` (stereo partly drawn) [Compound 353, 3-{4-fluoro-5-[(2S)-2-methyl-4-{[(1r,4r)-4-[(1-{6-[5-(1-methylcyclopropoxy)-1H-indazol-3-yl]pyrimidin-4-yl}piperidin-4-yl)oxy]cyclohexyl]methyl}piperazin-1-yl]-1-oxo-2,3-dihydro-1H-isoindol-2-yl}piperidine-2,6-dione], the Dmax under setting [1] was 50 to 70%. In addition, the DC50 under setting [2] is below 0.01 µM.
On to `COc1c(N2CCC(O[C@@H]3CCN(CC4CCN(c5cc(-c6n[nH]c7ccc(OC8(C)CC8)cc67)ncn5)CC4)C(C)(C)C3)CC2)ccc2c1CN(C1CCC(=O)NC1=O)C2=O` (stereo partly drawn) [Compound 322, 3-[5-(4-{[(4R)-2,2-dimethyl-1-[(1-{6-[5-(1-methylcyclopropoxy)-1H-indazol-3-yl]pyrimidin-4-yl}piperidin-4-yl)methyl]piperidin-4-yl]oxy}piperidin-1-yl)-4-methoxy-1-oxo-2,3-dihydro-1H-isoindol-2-yl]piperidine-2,6-dione], for which, under setting [1], the Dmax lay in the range of 50 to 70%. Under setting [2], the DC50 is below 0.01 µM.
For the molecule `COc1c(N2CCC(CN3CCN(CC4CCN(c5cc(-c6n[nH]c7ccc(OC8(C)CC8)cc67)ncn5)CC4)[C@@H](C)C3)CC2)ccc2c1CN(C1CCC(=O)NC1=O)C2=O` (stereo partly drawn) [Compound 256, 3-[4-methoxy-5-(4-{[(3S)-3-methyl-4-[(1-{6-[5-(1-methylcyclopropoxy)-1H-indazol-3-yl]pyrimidin-4-yl}piperidin-4-yl)methyl]piperazin-1-yl]methyl}piperidin-1-yl)-1-oxo-2,3-dihydro-1H-isoindol-2-yl]piperidine-2,6-dione], the DC50 under setting [3] is below 0.01 µM. Also, the Dmax under setting [4] was in the range of 50 to 70%.
The like results for `CC1(Oc2ccc3[nH]nc(-c4cc(N5CCC(CN6C7CC6CN(CC6CCN(c8ccc9c(c8F)CN(C8CCC(=O)NC8=O)C9=O)CC6)C7)CC5)ncn4)c3c2)CC1` (centres unmarked) [Compound 237, 3-{4-fluoro-5-[4-({6-[(1-{6-[5-(1-methylcyclopropoxy)-1H-indazol-3-yl]pyrimidin-4-yl}piperidin-4-yl)methyl]-3,6-diazabicyclo[3.1.1]heptan-3-yl}methyl)piperidin-1-yl]-1-oxo-2,3-dihydro-1H-isoindol-2-yl}piperidine-2,6-dione] were, in that order, below 0.01 µM and at least 70%.
